Data set [1] deals with inflammatory muscle tissue. The settings on record: cited from earlier work.
For the next data set, the system named is 786-O/luc cells. The data set can be described thus: in vitro uptake of [F-18]-D-FMT into 786-O/luc cells. Particulars: after 30 min. It is filed as cell-based, human.
The next data set deals with 786-O bone metastases. The experiment in a line: PET/CT imaging in 786-O/luc bone metastasis mouse model. The settings on record: for accumulation in bone metastases / osteolytic lesions: [F-18]-fluoride day 51, [F-18]-D-FMT day 65. As to the method: 786-O/luc cells and the MDA-MB231SA/luc cells were harvested from subconfluent cell culture flasks and resuspended in PBS (Biochrom AG) to a final concentration of 5×10^5 cells/100 μl. For intracardiac inoculations, 5-week-old female athymic nude mice (Harlan-Winkelmann GmbH, Borchen, Germany) were anesthetized with an intraperitoneal injection of 5% Rompun (Bayer HealthCare AG, Leverkusen, Germany)/10% Ketavet (Pfizer, Karlsruhe, Germany) in 0.9% NaCl at a dose of 0.1 ml/10 g body weight. Using an insulin syringe (BD Micro-Fine+Demi U-100, Becton Dickinson GmbH, Heidelberg, Germany), 5×10^5 786-O/luc cells in 100 μl PBS were inoculated into the left cardiac ventricle (i.c.) of anesthetized mice. Experiments were approved by the governmental review committee on animal care.
10 to 12 MBq [F-18]-fluoride or [F-18]-D-FMT were injected i.v. into the tail vein. 60 min after injection anesthesia was induced by isoflurane/O2 and twenty-minute micro-PET/computed tomography (CT) scans were obtained using an Inveon micro PET/CT scanner (Siemens).
51 days after the inoculation of the 786-O/luc cells into the mice, PET/CT imaging was performed with [F-18]-fluoride (FIG. 1 right side). […] The same mouse was imaged 2 weeks later (day 65) with [F-18]-D-FMT (FIG. 1 left side).

Data set [2] relates to MDA-MB231SA bone metastases. The experiment in a line: PET/CT imaging in MDA-MB231SA/luc bone metastasis mouse model. Particulars: PET/CT 25 days after inoculation. It is filed as in vivo. From the text: To conclude, [F-18]-D-FMT is useful for the detection of bone metastases.
The conditions of data set [3]: in vivo; cited from earlier work.

Where two headings read alike, the source gives them in different places.

In the case of “18F-fluorodeoxyglucose [FDG, reference compound]”, the “uptake in inflammatory muscle tissue” value in data set [1] (in vivo) is on record as “taken up”.
On to `N[C@H](Cc1ccc(OC[18F])cc1)C(=O)O` [[F-18]-D-FMT, (R)-2-amino-3-(4[F-18]fluoromethoxy-phenyl)-propionic acid], for which the “uptake into the 786-O/luc cells” value in the data set on 786-O/luc cells is listed as 12.8 % applied dose/10^6 cells. Also, in the data set on 786-O bone metastases, the “uptake into regenerating and remineralizing bone / detection of osteoblastic activity” value was “not detected”; the “accumulation in bone metastases / osteolytic lesions” value is “accumulated in all bone metastases imaged by [F-18]-fluoride”. For the same compound, the “uptake into the healthy bone” value in the data set with 786-O bone metastases (60 min after i.v. injection) is listed as “no uptake”. In addition, the “uptake into the bone metastases” value in data set [2] is “showed uptake into the bone metastases”. In addition, the “uptake in inflammatory muscle tissue” value in data set [1] (Turpentine-induced inflammation) is given as “no uptake”.
As for `[18FH]` [[F-18]-fluoride, reference compound], in the data set with 786-O bone metastases, the “uptake into regenerating and remineralizing bone / detection of osteoblastic activity” value was “unspecific uptake”; the “accumulation in bone metastases / osteolytic lesions” value is “high accumulation in multiple osteolytic lesions”. Moreover, the “blood-borne tracer carried in red cells” value in data set [3] is “approximately 30%”.

The record behind these values is patent US20130028838A1, “F18-TYROSINE DERIVATIVES FOR IMAGING BONE METASTASES” (PIRAMAL IMAGING SA, priority 2010, published 2013).
